In patent publication US20260209189A1, “ISOXAZOLINE-SUBSTITUTED BENZAMIDE COMPOUND AND APPLICATION THEREOF” (priority 2022, published 2026):

What was measured:
Format in all cases: in vivo
Spodoptera frugiperda [1] = experiment: Assay of insecticidal activity of compositions (synergism), 3rd instar; conditions: for pest or weed control at 50 µg/mL: B 50 ppm
Experimental: (§1) The compound of the present invention was dissolved in acetone, and then diluted with water into liquids with gradients of different concentrations (ppm). Corn leaves were soaked in liquids of different concentrations for about 20 seconds, air-dried and then placed in petri dishes where 3rd instar Spodoptera frugiperda were placed, respectively; kale leaves were soaked in liquids of different concentrations for about 20 seconds, air-dried and then placed in petri dishes where 3rd instar Spodoptera frugiperda were placed, respectively; peanut leaves were soaked in liquids of different concentrations for about 20 seconds, air-dried and then placed in petri dishes where Tetranychus urticae (adult mite) and Aphis craccivora (adult aphid) were placed, respectively; water bamboo leaves were soaked in liquids of different concentrations for about 20 seconds, air-dried and then placed in petri dishes where 4th instar Chilo suppressalis were placed, respectively. Each petri dish was placed with 10 insects, covered and then stored at 25° C. in a constant temperature room. The number of dead insects were checked after 48 h. The dead insect rate was calculated by the formula: Death rate (%)=(Number of dead insects/Number of test insects)×100. Furthermore, the experiment was conducted in two replications.
• Test targets: Spodoptera frugiperda (3rd instar) and Aphis gossypii (adult aphid) […]
(§2) Different ratios within the selected ratio range were set for toxicity determination, and the optimal ratio was selected according to synergistic effects. When the synergistic effect >0, it indicated a synergistic effect; when the synergistic effect is close to 0, it indicated an addition effect; when the synergistic effect <0, it indicated an antagonistic effect.
(§3) [formula] • wherein, P1, P2—Death rate by each individual agent in a mixed formulation.

Aphis gossypii = experiment: Assay of insecticidal activity of compositions (synergism), zucchini leaves, adult aphid; conditions: in Cucurbita pepo, 48 h, read-out: Death rate by individual B; for pest or weed control at 1 µg/mL: B 1 ppm; for pest or weed control at 5 µg/mL: B 5 ppm
Experimental: as §1
• Test targets: Spodoptera frugiperda (3rd instar) and Aphis gossypii (adult aphid)
Referring to the above-mentioned Insecticidal activity assay, when the test target was Aphis gossypii, the zucchini leaves were selected.
as §2, §3

Tetranychus urticae = experiment: Insecticidal activity assay, peanut leaf dip, adult mite; conditions: 48 h
Experimental: as §1

Aphis craccivora = experiment: Insecticidal activity assay, peanut leaf dip, adult aphid; conditions: liquid concentration 8.1 ppm, 48 h
Experimental: as §1

Spodoptera exigua = experiment: Insecticidal activity assay, kale leaf dip, 3rd instar larvae; conditions: liquid concentration 0.3 ppm, 48 h
Spodoptera frugiperda [2] = experiment: Insecticidal activity assay, corn leaf dip, 3rd instar larvae; conditions: liquid concentration 0.3 ppm, 48 h
Experimental: as §1

[3] = 48 h, read-out: Death rate by individual B
[4] = 48 h, B 2 ppm, read-out: Death rate by individual B

N#Cc1nn(-c2c(Cl)cc(C(F)(F)F)cc2Cl)c(N)c1[S+]([O-])C(F)(F)F (stereo not drawn) [Fipronil, reference compound]
pest or weed control at 1 µg/mL (Spodoptera frugiperda [1]; 48 h, B 1 ppm, read-out: Death rate by individual B): 43%

CC(C)N1C(=O)N(c2ccccc2)CS/C1=N\C(C)(C)C [Buprofezin, reference compound]
pest or weed control at 10 µg/mL (Spodoptera frugiperda [1]; 48 h, B 10 ppm, read-out: Death rate by individual B): 36%

CNC(=O)c1cc(Cl)cc(C)c1NC(=O)c1cc(Br)nn1-c1ncccc1Cl [Chlorantraniliprole, reference compound]
pest or weed control at 0.5 µg/mL (Spodoptera frugiperda [1]; 48 h, B 0.5 ppm, read-out: Death rate by individual B): 50%

CCc1nn(C)c(C(=O)NCc2ccc(Oc3ccc(C)cc3)cc2)c1Cl [Tolfenpyrad, reference compound]
pest or weed control at 1 µg/mL (Aphis gossypii): 35%

C/C(=N\C#N)N(C)Cc1ccc(Cl)nc1 [Acetamiprid, reference compound]
pest or weed control at 1 µg/mL (Aphis gossypii): 52%

CCN(Cc1ccc(Cl)nc1)/C(=C/[N+](=O)[O-])NC [Nitenpyram, reference compound]
pest or weed control at 1 µg/mL (Aphis gossypii): 36%

Cc1cc(C)c(C2=C(OC(=O)CC(C)(C)C)C3(CCCC3)OC2=O)c(C)c1 [Spiromesifen, reference compound]
Death rate by individual B (Spodoptera frugiperda [1]; B 100 ppm): 49%

CNC(=O)c1cc(C#N)cc(C)c1NC(=O)c1cc(Br)nn1-c1ncccc1Cl [Cyantraniliprole, reference compound]
pest or weed control at 5 µg/mL (Aphis gossypii): 36%

COC(=O)C(C)NC(=O)c1ccc(C2=NOC(c3cc(Cl)c(OC)c(C(F)(F)F)c3)(C(F)(F)F)C2)cc1C [Compound 183 (5S, 2R)]
Death rate (Tetranychus urticae; liquid concentration 8.1 ppm): 70%

COC(=O)C(NC(=O)c1ccc(C2=NOC(c3cc(Cl)c(Cl)c(C(F)(F)F)c3)(C(F)(F)F)C2)cc1C)C1CC1 (stereo not drawn) [Compound 118]
Death rate (Aphis craccivora): 40% | Death rate (Spodoptera exigua): 60%

COC(=O)[C@@H](C)N(C)C(=O)c1ccc(C2=NOC(c3cc(Cl)c(Cl)c(C(F)(F)F)c3)(C(F)(F)F)C2)cc1C (stereo partly drawn) [Compound 4 (2R)]
Death rate (Spodoptera frugiperda [2]): 100%

CCn1nc(C)cc1/C(OC(=O)C(C)(C)C)=C(/C#N)c1ccc(C(C)(C)C)cc1 [Cyetpyrafen, reference compound]
Death rate by individual B (Spodoptera frugiperda [1]; B 100 ppm): 30%

CCOCn1c(-c2ccc(Cl)cc2)c(C#N)c(Br)c1C(F)(F)F [Chlorfenapyr, reference compound]
pest or weed control at 50 µg/mL (Spodoptera frugiperda [1]; [3]): 59%

COP(=O)(NC(C)=O)SC (stereo not drawn) [Acephate, reference compound]
pest or weed control at 300 µg/mL (Spodoptera frugiperda [1]; [3]): 38%

COC(=O)C(CCSC)NC(=O)c1ccc(C2=NOC(c3cc(Cl)c(Cl)c(C(F)(F)F)c3)(C(F)(F)F)C2)cc1C (mixture of isomers) [180 (2R)]
Death rate (Tetranychus urticae; liquid concentration 8.1 ppm): 45%

CCOC(=O)[C@@H](C)NC(=O)c1ccc(C2=NOC(c3cc(Cl)c(Cl)c(C(F)(F)F)c3)(C(F)(F)F)C2)cc1C (stereo partly drawn) [Compound 30 (2R)]
Death rate (Spodoptera frugiperda [2]): 90% | Death rate (Tetranychus urticae; liquid concentration 0.9 ppm): 80%

CC(C)c1cc(Oc2ccccc2)cc(C(C)C)c1NC(=S)NC(C)(C)C [Diafenthiuron, reference compound]
pest or weed control at 100 µg/mL (Spodoptera frugiperda [1]; [3]): 49%

CC[S+]([O-])c1c(C#N)nn(-c2c(Cl)cc(C(F)(F)F)cc2Cl)c1N (stereo not drawn) [Ethiprole, reference compound]
pest or weed control at 5 µg/mL (Aphis gossypii): 33%

Emamectin-benzoate [reference compound]
Death rate by individual B (Spodoptera frugiperda [1]; B 2 ppm): 37%

CC1=NNC(=O)N(/N=C/c2cccnc2)C1 [Pymetrozine, reference compound]
pest or weed control at 50 µg/mL (Spodoptera frugiperda [1]; [3]): 30%

COC(=O)C(CC(N)=O)NC(=O)c1ccc(C2=NOC(c3cc(Cl)c(Cl)c(C(F)(F)F)c3)(C(F)(F)F)C2)cc1C (mixture of isomers) [179 (2R)]
Death rate (Tetranychus urticae; liquid concentration 8.1 ppm): 80%

COc1cccc(C(=O)NN(C(=O)c2cc(C)cc(C)c2)C(C)(C)C)c1C [Methoxyfenozide, reference compound]
pest or weed control at 2 µg/mL (Spodoptera frugiperda [1]; [4]): 31%

COC(=O)C(C)NC(=O)c1ccc(C2=NOC(c3cc(Cl)c(OC)c(C(F)(F)F)c3)(C(F)(F)F)C2)cc1C (mixture of isomers) [183 (2R)]
Death rate (Spodoptera frugiperda [2]): 100% | Death rate (Spodoptera exigua): 100%

CC1(C)[C@H](C(=O)O[C@H](C#N)c2cccc(Oc3ccccc3)c2)[C@@H]1/C=C(\Cl)C(F)(F)F (racemic) [lambda-cyhalothrin, lambda-Cyhalothrin, reference compound]
pest or weed control at 2 µg/mL (Spodoptera frugiperda [1]; [4]): 41%
